Compound | melting point [°C]
OCc1cc(O)cc2c1O[C@@H](c1ccc(O)cc1)[C@H]1CCC[C@@H]21 (single isomer, unassigned) [Example 2B] | 195 to 197
CCOCc1cc(O)cc2c1O[C@@H](c1ccc(O)cc1)[C@H]1CCC[C@@H]21 (single isomer, unassigned) [Example 3B] | 62 to 66
COCc1cc(O)cc2c1O[C@@H](c1ccc(O)cc1)[C@H]1CCC[C@@H]21 [Example 1B, (3aS, 4R, 9bR)-4-(4-Hydroxy-phenyl)-6-methoxymethyl-1,2,3,3a,4,9b-hexahydro-cyclopenta[c]chromen-8-ol] | 76 to 80
